PMC4866733 (PLoS Genetics, 2016)

What was measured:
GacSH1 = molecular target: T1, GacSH1 (Pseudomonas aeruginosa, UniProt G3XD98); conditions: 0.1 mM ATP, 5 mM MgCl2, 50 mM KCl, 50 mM Tris-HCl pH 7.6, 1 mM DTT, room temperature, 20 min; GacSD1 present; labelled compound
T1 construct: gene gacS

LadSH1D1 = molecular target: T2, LadSH1D1 (Pseudomonas aeruginosa, UniProt Q9HX42); conditions: 0.1 mM ATP, 5 mM MgCl2, 50 mM KCl, 50 mM Tris-HCl pH 7.6, 1 mM DTT, room temperature, 20 min; labelled compound; phosphoryl transfer to H428
T2 construct: gene ladS
T2 sequence (Q9HX42 entry or part of it): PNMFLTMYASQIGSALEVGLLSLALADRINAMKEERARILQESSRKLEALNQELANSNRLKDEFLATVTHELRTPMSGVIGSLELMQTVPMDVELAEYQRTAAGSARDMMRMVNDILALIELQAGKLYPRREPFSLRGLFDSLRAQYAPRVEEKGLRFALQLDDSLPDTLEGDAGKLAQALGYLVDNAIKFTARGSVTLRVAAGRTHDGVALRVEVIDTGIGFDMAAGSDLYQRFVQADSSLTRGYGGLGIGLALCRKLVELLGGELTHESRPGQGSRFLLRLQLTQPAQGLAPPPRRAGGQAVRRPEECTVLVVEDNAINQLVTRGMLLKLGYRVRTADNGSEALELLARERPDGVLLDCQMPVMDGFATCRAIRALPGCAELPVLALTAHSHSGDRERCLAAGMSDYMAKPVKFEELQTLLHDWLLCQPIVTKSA

T1 sequence (G3XD98 entry or part of it): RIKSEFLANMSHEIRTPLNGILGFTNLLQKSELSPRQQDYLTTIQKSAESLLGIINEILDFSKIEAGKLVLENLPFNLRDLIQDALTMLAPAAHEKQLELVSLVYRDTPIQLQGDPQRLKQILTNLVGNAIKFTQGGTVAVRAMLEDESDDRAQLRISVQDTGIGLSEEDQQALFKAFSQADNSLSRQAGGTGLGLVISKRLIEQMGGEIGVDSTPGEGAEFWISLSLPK

Nc1ncnc2c1ncn2[C@@H]1O[C@H](COP(=O)(O)OP(=O)(O)OP(=O)(O)O)[C@@H](O)[C@H]1O [[γ-^32P]ATP] was tested, and the “autophosphorylation and phosphotransfer to GacSD1, SDS-PAGE and autoradiography” value (GacSH1) was “between the H1 domain of GacS and the D1 domain of GacS” and the “autophosphorylation, SDS-PAGE and autoradiography” value (LadSH1D1) was “LadSH1D1 and LadSH1D1D→A proteins were found in an autophosphorylated form”.
